This assay has as its target GCN2 (Homo sapiens, UniProt Q9P2K8). Put plainly: GCN2 enzymatic endpoint assay: phosphorylation of GFP-eIF2α measured by TR-FRET (Lanthascreen). The assay is classed as biochemical. The settings on record: GCN2 biochemical IC50; 4 nM GCN2, 2 μM ATP, 80 nM GFP-eIF2α, 90 min RT; read-out: GCN2 activity. In short, it runs like this: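 Endpoint kinase reaction with 2 μM ATP and 80 nM GFP-labelled eIF2α substrate, run at room temperature for 90 min, then stopped with EDTA. Phospho-substrate detected by terbium-antibody TR-FRET, activity taken as the 520/495 nm emission ratio.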
(In general: TR-FRET usually uses a lanthanide donor and a delayed reading to cut background.)

Where a name gives a salt, the structure may show the parent alone.

These results are taken from patent US11046699B2, “Pyrazolo-pyrimidin-amino-cycloalkyl compounds and their therapeutic uses” (RAPT THERAPEUTICS, INC., priority 2018, dated 2021).

GCN2, sequence (Q9P2K8 whole entry): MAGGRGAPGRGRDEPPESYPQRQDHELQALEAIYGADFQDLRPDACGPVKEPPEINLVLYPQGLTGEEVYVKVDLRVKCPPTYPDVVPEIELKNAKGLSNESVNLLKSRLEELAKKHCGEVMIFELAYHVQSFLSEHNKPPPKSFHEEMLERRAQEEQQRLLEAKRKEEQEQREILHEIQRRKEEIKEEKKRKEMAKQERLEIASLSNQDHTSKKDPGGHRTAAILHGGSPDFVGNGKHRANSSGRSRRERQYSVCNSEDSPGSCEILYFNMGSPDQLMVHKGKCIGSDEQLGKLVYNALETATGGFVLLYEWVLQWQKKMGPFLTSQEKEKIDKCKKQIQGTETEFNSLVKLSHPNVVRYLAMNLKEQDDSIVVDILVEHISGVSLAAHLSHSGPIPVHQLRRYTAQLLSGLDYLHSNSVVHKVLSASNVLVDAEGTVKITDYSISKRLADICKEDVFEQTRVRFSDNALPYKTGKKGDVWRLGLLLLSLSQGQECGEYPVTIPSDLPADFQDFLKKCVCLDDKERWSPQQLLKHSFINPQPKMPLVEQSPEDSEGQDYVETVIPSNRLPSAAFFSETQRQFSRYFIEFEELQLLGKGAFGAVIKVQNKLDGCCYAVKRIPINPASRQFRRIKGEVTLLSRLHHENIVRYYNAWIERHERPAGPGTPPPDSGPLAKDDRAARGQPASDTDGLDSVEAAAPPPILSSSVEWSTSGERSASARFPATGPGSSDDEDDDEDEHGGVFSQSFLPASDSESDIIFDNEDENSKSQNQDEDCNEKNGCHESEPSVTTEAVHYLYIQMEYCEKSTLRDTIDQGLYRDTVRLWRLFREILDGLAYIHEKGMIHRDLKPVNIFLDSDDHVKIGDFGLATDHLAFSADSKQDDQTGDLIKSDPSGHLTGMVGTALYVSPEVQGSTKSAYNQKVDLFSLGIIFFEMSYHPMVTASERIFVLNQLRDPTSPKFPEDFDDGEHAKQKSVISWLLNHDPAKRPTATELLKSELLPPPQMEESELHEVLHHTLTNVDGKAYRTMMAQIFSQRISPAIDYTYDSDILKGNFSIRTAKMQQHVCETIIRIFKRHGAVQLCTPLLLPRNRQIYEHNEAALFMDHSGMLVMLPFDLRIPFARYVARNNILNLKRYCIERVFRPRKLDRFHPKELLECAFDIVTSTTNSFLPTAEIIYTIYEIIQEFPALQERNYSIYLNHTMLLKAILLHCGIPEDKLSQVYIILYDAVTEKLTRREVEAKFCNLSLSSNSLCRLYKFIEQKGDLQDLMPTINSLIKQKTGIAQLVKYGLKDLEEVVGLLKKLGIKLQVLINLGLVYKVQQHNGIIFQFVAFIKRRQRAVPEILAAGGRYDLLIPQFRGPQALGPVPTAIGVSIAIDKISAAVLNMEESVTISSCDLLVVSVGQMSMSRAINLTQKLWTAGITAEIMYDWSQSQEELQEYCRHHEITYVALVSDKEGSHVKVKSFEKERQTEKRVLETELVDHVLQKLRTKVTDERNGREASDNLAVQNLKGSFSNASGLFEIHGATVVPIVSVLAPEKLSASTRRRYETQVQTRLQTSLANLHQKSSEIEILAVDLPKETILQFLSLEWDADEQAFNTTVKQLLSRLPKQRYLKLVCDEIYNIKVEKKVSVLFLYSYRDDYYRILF

With `COCCNC(=O)[C@@H]1CC[C@@H](Nc2ncc3c(I)nn(-c4ccc5ncccc5c4)c3n2)C1` [Example 13, (1R,3R)-3-((3-iodo-1-(quinolin-6-yl)-1H-pyrazolo[3,4-d]pyrimidin-6-yl)amino)-N-(2-methoxyethyl)cyclopentane-1-carboxamide], the IC50 is less than 25 nM.
The value for `COCCNC(=O)[C@@H]1CC[C@@H](Nc2ncc3c(Cl)nn(-c4ccc5ncccc5c4)c3n2)C1` [Example 14, (1R,3R)-3-((3-chloro-1-(quinolin-6-yl)-1H-pyrazolo[3,4-d]pyrimidin-6-yl)amino)-N-(2-methoxyethyl)cyclopentane-1-carboxamide] was less than 25 nM; that for `COCCNC(=O)[C@@H]1CCC[C@@H](Nc2ncc3c(Br)nn(-c4ccc5ncccc5c4)c3n2)C1` [Example 20, (1R,3R)-3-((3-bromo-1-(quinolin-6-yl)-1H-pyrazolo[3,4-d]pyrimidin-6-yl)amino)-N-(2-methoxyethyl)cyclohexane-1-carboxamide] was 500 to 1000 nM; that for `CNC(=O)[C@]1(C)CC[C@@H](Nc2ncc3c(Br)nn(-c4ccc5ncc(C(C)(C)O)cc5c4)c3n2)C1` [Example 21, (1R,3R)-3-((3-bromo-1-(3-(2-hydroxypropan-2-yl)quinolin-6-yl)-1H-pyrazolo[3,4-d]pyrimidin-6-yl)amino)-N,1-dimethylcyclopentane-1-carboxamide] was 25 to 200 nM.
With `Cc1nnc(-c2ccc(-n3nc(Br)c4cnc(N[C@@H]5CC[C@@H](C(=O)N6CCNC(=O)C6)C5)nc43)cc2)o1` [Example 22, 4-((1R,3R)-3-((3-bromo-1-(4-(5-methyl-1,3,4-oxadiazol-2-yl)phenyl)-1H-pyrazolo[3,4-d]pyrimidin-6-yl)amino)cyclopentane-1-carbonyl)piperazin-2-one] the figure was 25 to 200 nM; with `COCCNC(=O)[C@@H]1CC[C@@H](Nc2ncc3c(Br)nn(-c4ccc(-c5cccnc5)cc4)c3n2)C1` [Example 24, (1R,3R)-3-((3-bromo-1-(4-(pyridin-3-yl)phenyl)-1H-pyrazolo[3,4-d]pyrimidin-6-yl)amino)-N-(2-methoxyethyl)cyclopentane-1-carboxamide], 200 to 500 nM.
In the case of `Brc1nn(-c2ccc3ncccc3c2)c2nc(N[C@@H]3CC[C@@H](c4ncc[nH]4)C3)ncc12` [Example 25, N-((1R,3R)-3-(1H-imidazol-2-yl)cyclopentyl)-3-bromo-1-(quinolin-6-yl)-1H-pyrazolo[3,4-d]pyrimidin-6-amine], the IC50 was in the range of 25 to 200 nM.
As to `COCCNC(=O)[C@@H]1CC[C@@H](Nc2ncc3c(Br)nn(-c4ccc(-c5ncco5)cc4)c3n2)C1` [Example 26, (1R,3R)-3-((3-bromo-1-(4-(oxazol-2-yl)phenyl)-1H-pyrazolo[3,4-d]pyrimidin-6-yl)amino)-N-(2-methoxyethyl)cyclopentane-1-carboxamide], the IC50 is 25 to 200 nM.
For `CN1CCN(C(=O)[C@@H]2CC[C@@H](Nc3ncc4c(Br)nn(-c5ccc(-c6cccnc6)c(F)c5)c4n3)C2)CC1=O` [Example 27, 4-((1R,3R)-3-((3-bromo-1-(3-fluoro-4-(pyridin-3-yl)phenyl)-1H-pyrazolo[3,4-d]pyrimidin-6-yl)amino)cyclopentane-1-carbonyl)-1-methylpiperazin-2-one], the IC50 was 500 to 1000 nM.
With `Cc1nnc(-c2ccc(-n3nc(Br)c4cnc(N[C@@H]5CC[C@](C(=O)N6CCNCC6)(C(C)C)C5)nc43)cc2CCC(N)=O)s1` [Example 28, 3-(5-(3-bromo-6-(((1R,3R)-3-isopropyl-3-(piperazine-1-carbonyl)cyclopentyl)amino)-1H-pyrazolo[3,4-d]pyrimidin-1-yl)-2-(5-methyl-1,3,4-thiadiazol-2-yl)phenyl)propanamide; 2,2,2-trifluoroacetic acid] the figure was less than 25 nM; with `CNC(=O)[C@]1(C)CC[C@@H](Nc2ncc3c(Br)nn(-c4cc(CCO)c5ncccc5c4)c3n2)C1` [Example 29, (1R,3R)-3-((3-bromo-1-(8-(2-hydroxyethyl)quinolin-6-yl)-1H-pyrazolo[3,4-d]pyrimidin-6-yl)amino)-N,1-dimethylcyclopentane-1-carboxamide hydrochloride], less than 25 nM; with `CN(C)C(=O)[C@]1(C)CC[C@@H](Nc2ncc3c(Br)nn(-c4cc(CCN)c5ncccc5c4)c3n2)C1` [Example 30, (1R,3R)-3-((1-(8-(2-aminoethyl)quinolin-6-yl)-3-bromo-1H-pyrazolo[3,4-d]pyrimidin-6-yl)amino)-N,N,1-trimethylcyclopentane-1-carboxamide; 2,2,2-trifluoroacetic acid], less than 25 nM.
With `CNC(=O)[C@]1(C)CC[C@@H](Nc2ncc3c(I)nn(-c4cc(F)c5ncccc5c4)c3n2)C1` [Example 31, (1R,3R)-3-((1-(8-fluoroquinolin-6-yl)-3-iodo-1H-pyrazolo[3,4-d]pyrimidin-6-yl)amino)-N,1-dimethylcyclopentane-1-carboxamide; 2,2,2-trifluoroacetic acid] the figure was less than 25 nM; with `CNC(=O)[C@]1(C)CC[C@@H](Nc2ncc3c(Br)nn(-c4cc(CCN)c5ncccc5c4)c3n2)C1` [Example 32, (1R,3R)-3-((1-(8-(2-aminoethyl)quinolin-6-yl)-3-bromo-1H-pyrazolo[3,4-d]pyrimidin-6-yl)amino)-N,1-dimethylcyclopentane-1-carboxamide; 2,2,2-trifluoroacetic acid], less than 25 nM.
`CNC(=O)[C@]1(C)CC[C@@H](Nc2ncc3c(Br)nn(-c4cc(CNS(C)(=O)=O)c5ncccc5c4)c3n2)C1` [Example 33, (1R,3R)-3-((3-bromo-1-(8-(methylsulfonamidomethyl)quinolin-6-yl)-1H-pyrazolo[3,4-d]pyrimidin-6-yl)amino)-N,1-dimethylcyclopentane-1-carboxamide; 2,2,2-trifluoroacetic acid]: the IC50 was less than 25 nM.
The value for `CNC(=O)[C@]1(C)CC[C@@H](Nc2ncc3c(Br)nn(-c4cc([C@@H](C)N)c5nccnc5c4)c3n2)C1` [Example 34, (1R,3R)-3-((1-(8-((R)-1-aminoethyl)quinoxalin-6-yl)-3-bromo-1H-pyrazolo[3,4-d]pyrimidin-6-yl)amino)-N,1-dimethylcyclopentane-1-carboxamide; 2,2,2-trifluoroacetic acid] was less than 25 nM; that for `CNC(=O)[C@]1(C)CC[C@@H](Nc2ncc3c(Br)nn(-c4ccc(-c5nnc(C)o5)c(C#N)c4)c3n2)C1` [Example 35, (1R,3R)-3-((3-bromo-1-(3-cyano-4-(5-methyl-1,3,4-oxadiazol-2-yl)phenyl)-1H-pyrazolo[3,4-d]pyrimidin-6-yl)amino)-N,1-dimethylcyclopentane-1-carboxamide; 2,2,2-trifluoroacetic acid] was less than 25 nM; that for `CNC(=O)[C@]1(C)CC[C@@H](Nc2ncc3c(Br)nn(-c4cc(C#N)cc(OCC5(F)CNC5)c4)c3n2)C1` [Example 36, (1R,3R)-3-((3-bromo-1-(3-cyano-5-((3-fluoroazetidin-3-yl)methoxy)phenyl)-1H-pyrazolo[3,4-d]pyrimidin-6-yl)amino)-N,1-dimethylcyclopentane-1-carboxamide; 2,2,2-trifluoroacetic acid] was less than 25 nM.
The value for `CNC(=O)[C@]1(C(C)C)CC[C@@H](Nc2ncc3c(Br)nn(-c4cc(F)c5ncccc5c4)c3n2)C1` [Example 37, (1R,3R)-3-((3-bromo-1-(8-fluoroquinolin-6-yl)-1H-pyrazolo[3,4-d]pyrimidin-6-yl)amino)-1-isopropyl-N-methylcyclopentane-1-carboxamide hydrochloride] was less than 25 nM; that for `CNC(=O)[C@]1(C)CC[C@@H](Nc2ncc3c(Br)nn(-c4ccc(-c5nnc(C)s5)cc4)c3n2)C1` [Example 38, (1R,3R)-3-((3-bromo-1-(4-(5-methyl-1,3,4-thiadiazol-2-yl)phenyl)-1H-pyrazolo[3,4-d]pyrimidin-6-yl)amino)-N,1-dimethylcyclopentane-1-carboxamide] was less than 25 nM; that for `CNC(=O)[C@]1(CC(F)F)CC[C@@H](Nc2ncc3c(Br)nn(-c4ccc(-c5nnc(C)s5)cc4)c3n2)C1` [Example 39, (1R,3R)-3-((3-bromo-1-(4-(5-methyl-1,3,4-thiadiazol-2-yl)phenyl)-1H-pyrazolo[3,4-d]pyrimidin-6-yl)amino)-1-(2,2-difluoroethyl)-N-methylcyclopentane-1-carboxamide; 2,2,2-trifluoroacetic acid] was less than 25 nM.
With `CNC(=O)[C@]1(CC#N)CC[C@@H](Nc2ncc3c(Br)nn(-c4cc(F)c5ncccc5c4)c3n2)C1` [Example 40, (1R,3R)-3-((3-bromo-1-(8-fluoroquinolin-6-yl)-1H-pyrazolo[3,4-d]pyrimidin-6-yl)amino)-1-(cyanomethyl)-N-methylcyclopentane-1-carboxamide hydrochloride] the figure was less than 25 nM.
Consider `CNC(=O)[C@]1(C)CC[C@@H](Nc2ncc3c(Br)nn(-c4cc(Cl)cc(CCN)c4)c3n2)C1` [Example 41, (1R,3R)-3-((1-(3-(2-aminoethyl)-5-chlorophenyl)-3-bromo-1H-pyrazolo[3,4-d]pyrimidin-6-yl)amino)-N,1-dimethylcyclopentane-1-carboxamide hydrochloride], for which the IC50 is less than 25 nM.
With `CNC(=O)[C@]1(C)CC[C@@H](Nc2ncc3c(Br)nn(-c4ccc5nnccc5c4)c3n2)C1` [Example 42, (1R,3R)-3-((3-bromo-1-(cinnolin-6-yl)-1H-pyrazolo[3,4-d]pyrimidin-6-yl)amino)-N,1-dimethylcyclopentane-1-carboxamide; 2,2,2-trifluoroacetic acid] the figure was less than 25 nM; with `CNC(=O)[C@]1(CCC#N)CC[C@@H](Nc2ncc3c(Br)nn(-c4cc(F)c5ncccc5c4)c3n2)C1` [Example 43, (1S,3R)-3-((3-bromo-1-(8-fluoroquinolin-6-yl)-1H-pyrazolo[3,4-d]pyrimidin-6-yl)amino)-1-(2-cyanoethyl)-N-methylcyclopentane-1-carboxamide hydrochloride], less than 25 nM.
